Among the data in PubChem BioAssay AID250 (DTP/NCI, 2004) are T/C values, retold here.

SMILES strings stand for the structures. “And” between values parts separate entries of the source, which are not always exact repeats. Equal entries are not always repeated. Inconclusive results and toxic doses are left out.

The subject of the assay is BDF1 mice, L1210 leukemia sc, survival T/C. As to the kind of experiment: NCI In Vivo Anticancer Drug Screen. Data for tumor model L1210 Leukemia (subcutaneous) in B6D2F1 (BDF1) mice. Conditions: higher = longer survival. In a few lines: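 Transplantable tumor-bearing mice; survival or tumor size recorded; result = T/C, treated vs vehicle control.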
[1] abbreviates: endpoint: median survival time, dose: 10.0 mg/kg/injection, schedule: Q01DX009 (ip), vehicle: saline.

As for `O=c1[nH]cc(F)c(=O)[nH]1`, the T/C by setting is: (endpoint: mean survival time, dose: 65.0 mg/kg/injection, schedule: Q07DX009 (sc), vehicle: saline) 112 % of control; (endpoint: mean survival time, dose: 108.0 mg/kg/injection, schedule: Q07DX009 (sc), vehicle: saline) 99 % of control; (endpoint: mean survival time, dose: 180.0 mg/kg/injection, schedule: Q07DX009 (sc), vehicle: saline) 113 % of control; (endpoint: mean survival time, dose: 300.0 mg/kg/injection, schedule: Q07DX009 (sc), vehicle: saline) 162 % of control; (endpoint: median survival time, dose: 2.5 mg/kg/injection, schedule: Q01DX009 (ip), vehicle: saline) 93 % of control and 100 % of control; (endpoint: median survival time, dose: 3.0 mg/kg/injection, schedule: Q01DX Z (sc), vehicle: saline) 104 % of control. The T/C (endpoint: median survival time, dose: 3.02 mg/kg/injection, schedule: Q01DX Z (sc), vehicle: saline) was 100 % of control; the T/C (endpoint: median survival time, dose: 4.0 mg/kg/injection, schedule: Q01DX Z (sc), vehicle: saline) is 105 % of control; the T/C (endpoint: median survival time, dose: 5.0 mg/kg/injection, schedule: Q01DX009 (ip), vehicle: saline) was 94 % of control and 100 % of control and 102 % of control; the T/C (endpoint: median survival time, dose: 5.0 mg/kg/injection, schedule: Q01DX009 (sc), vehicle: saline) was 103 % of control; the T/C (endpoint: median survival time, dose: 5.0 mg/kg/injection, schedule: Q01DX Z (sc), vehicle: saline) is 108 % of control; the T/C (endpoint: median survival time, dose: 5.04 mg/kg/injection, schedule: Q01DX Z (sc), vehicle: saline) was 100 % of control. The T/C runs as follows: (endpoint: median survival time, dose: 8.4 mg/kg/injection, schedule: Q01DX009 (ip), vehicle: saline) 110 % of control; (endpoint: median survival time, dose: 8.4 mg/kg/injection, schedule: Q01DX009 (sc), vehicle: saline) 114 % of control; (endpoint: median survival time, dose: 8.4 mg/kg/injection, schedule: Q01DX013 (sc), vehicle: saline) 111 % of control; (endpoint: median survival time, dose: 8.4 mg/kg/injection, schedule: Q01DX Z (sc), vehicle: saline) 105 % of control and 108 % of control and 116 % of control; under setting [1], 103 % of control and 109 % of control; (endpoint: median survival time, dose: 14.0 mg/kg/injection, schedule: Q01DX009 (ip), vehicle: saline) 121 % of control. The T/C reads like this: (endpoint: median survival time, dose: 14.0 mg/kg/injection, schedule: Q01DX013 (sc), vehicle: saline) 150 % of control; (endpoint: median survival time, dose: 14.0 mg/kg/injection, schedule: Q04DX003 (ip), vehicle: saline) 100 % of control; (endpoint: median survival time, dose: 14.0 mg/kg/injection, schedule: Q04DX003 (sc), vehicle: saline) 103 % of control; (endpoint: median survival time, dose: 16.0 mg/kg/injection, schedule: Q01DX Z (sc), vehicle: saline) 122 % of control; (endpoint: median survival time, dose: 23.0 mg/kg/injection, schedule: Q01DX009 (sc), vehicle: saline) 154 % of control; (endpoint: median survival time, dose: 23.0 mg/kg/injection, schedule: Q01DX013 (sc), vehicle: saline) 161 % of control and 163 % of control. Besides, the T/C by setting is: (endpoint: median survival time, dose: 23.0 mg/kg/injection, schedule: Q04DX003 (ip), vehicle: saline) 107 % of control; (endpoint: median survival time, dose: 23.0 mg/kg/injection, schedule: Q04DX003 (sc), vehicle: saline) 102 % of control; (endpoint: median survival time, dose: 23.3 mg/kg/injection, schedule: Q01DX Z (sc), vehicle: saline) 108 % of control; (endpoint: median survival time, dose: 38.9 mg/kg/injection, schedule: Q01DX Z (sc), vehicle: saline) 100 % of control; (endpoint: median survival time, dose: 39.0 mg/kg/injection, schedule: Q01DX009 (ip), vehicle: saline) 109 % of control; (endpoint: median survival time, dose: 39.0 mg/kg/injection, schedule: Q01DX009 (sc), vehicle: saline) 121 % of control. In addition, the T/C is 166 % of control and 167 % of control (endpoint: median survival time, dose: 39.0 mg/kg/injection, schedule: Q01DX013 (sc), vehicle: saline); 163 % of control and 175 % of control (endpoint: median survival time, dose: 39.0 mg/kg/injection, schedule: Q01DX Z (sc), vehicle: saline); 161 % of control (endpoint: median survival time, dose: 64.0 mg/kg/injection, schedule: Q01DX Z (sc), vehicle: saline); 101 % of control (endpoint: median survival time, dose: 65.0 mg/kg/injection, schedule: Q01DX009 (ip), vehicle: saline); 107 % of control (endpoint: median survival time, dose: 65.0 mg/kg/injection, schedule: Q01DX009 (sc), vehicle: saline); 151 % of control (endpoint: median survival time, dose: 65.0 mg/kg/injection, schedule: Q04DX003 (sc), vehicle: saline). The T/C (endpoint: median survival time, dose: 65.0 mg/kg/injection, schedule: Q07DX009 (sc), vehicle: saline) was 114 % of control; the T/C (endpoint: median survival time, dose: 65.0 mg/kg/injection, schedule: Q07DX Z (sc), vehicle: saline) was 115 % of control; the T/C (endpoint: median survival time, dose: 108.0 mg/kg/injection, schedule: Q01DX Z (sc), vehicle: saline) was 91 % of control; the T/C (endpoint: median survival time, dose: 108.0 mg/kg/injection, schedule: Q04DX003 (ip), vehicle: saline) is 173 % of control; the T/C (endpoint: median survival time, dose: 108.0 mg/kg/injection, schedule: Q04DX003 (sc), vehicle: saline) was 187 % of control; the T/C (endpoint: median survival time, dose: 108.0 mg/kg/injection, schedule: Q07DX009 (sc), vehicle: saline) is 102 % of control. Besides, the T/C is, setting by setting: (endpoint: median survival time, dose: 108.0 mg/kg/injection, schedule: Q07DX Z (sc), vehicle: saline) 105 % of control; (endpoint: median survival time, dose: 128.0 mg/kg/injection, schedule: Q01DX Z (sc), vehicle: saline) 155 % of control; (endpoint: median survival time, dose: 180.0 mg/kg/injection, schedule: Q01DX Z (sc), vehicle: saline) 120 % of control; (endpoint: median survival time, dose: 180.0 mg/kg/injection, schedule: Q04DX003 (ip), vehicle: saline) 121 % of control; (endpoint: median survival time, dose: 180.0 mg/kg/injection, schedule: Q04DX003 (sc), vehicle: saline) 184 % of control; (endpoint: median survival time, dose: 180.0 mg/kg/injection, schedule: Q07DX009 (sc), vehicle: saline) 114 % of control. The T/C by setting is: (endpoint: median survival time, dose: 180.0 mg/kg/injection, schedule: Q07DX Z (sc), vehicle: saline) 115 % of control; (endpoint: median survival time, dose: 300.0 mg/kg/injection, schedule: Q07DX009 (sc), vehicle: saline) 169 % of control; (endpoint: median survival time, dose: 300.0 mg/kg/injection, schedule: Q07DX Z (sc), vehicle: saline) 168 % of control.

As for `CS(=O)(=O)OCCCCCCCCCOS(C)(=O)=O`, the T/C reads like this: (endpoint: median survival time, dose: 47.0 mg/kg/injection, schedule: Q01DX Z (sc), vehicle: methylcellulose (MC)) 105 % of control; (endpoint: median survival time, dose: 78.0 mg/kg/injection, schedule: Q01DX Z (sc), vehicle: methylcellulose (MC)) 115 % of control; (endpoint: median survival time, dose: 216.0 mg/kg/injection, schedule: Q01DX Z (sc), vehicle: methylcellulose (MC)) 160 % of control.

As for `CN(C)Nc1ncnc2nc[nH]c12`, the T/C (endpoint: median survival time, dose: 8.4 mg/kg/injection, schedule: Q01DX Z (sc), vehicle: water) is 100 % of control; the T/C (endpoint: median survival time, dose: 14.0 mg/kg/injection, schedule: Q01DX Z (sc), vehicle: water) was 100 % of control; the T/C (endpoint: median survival time, dose: 23.0 mg/kg/injection, schedule: Q01DX Z (sc), vehicle: water) is 111 % of control; the T/C (endpoint: median survival time, dose: 39.0 mg/kg/injection, schedule: Q01DX Z (sc), vehicle: water) is 105 % of control; the T/C (endpoint: median survival time, dose: 65.0 mg/kg/injection, schedule: Q01DX Z (sc), vehicle: water) is 111 % of control; the T/C (endpoint: median survival time, dose: 108.0 mg/kg/injection, schedule: Q01DX Z (sc), vehicle: water) was 100 % of control.

Regarding `O=c1[nH]cnc2[nH]ncc12`, the T/C runs as follows: (endpoint: mean survival time, dose: 20.0 mg/kg/injection, schedule: Q01DX001 (ip), vehicle: saline) 97 % of control; (endpoint: mean survival time, dose: 30.0 mg/kg/injection, schedule: Q01DX001 (ip), vehicle: saline) 101 % of control; (endpoint: mean survival time, dose: 40.0 mg/kg/injection, schedule: Q01DX001 (ip), vehicle: saline) 98 % of control; (endpoint: mean survival time, dose: 80.0 mg/kg/injection, schedule: Q01DX001 (ip), vehicle: saline) 98 % of control; under setting [1], 99 % of control (2×) and 100 % of control; (endpoint: median survival time, dose: 20.0 mg/kg/injection, schedule: Q01DX001 (ip), vehicle: saline) 90 % of control. Besides, the T/C by setting is: (endpoint: median survival time, dose: 20.0 mg/kg/injection, schedule: Q01DX009 (ip), vehicle: saline) 100 % of control and 101 % of control (2×); (endpoint: median survival time, dose: 30.0 mg/kg/injection, schedule: Q01DX001 (ip), vehicle: saline) 100 % of control; (endpoint: median survival time, dose: 40.0 mg/kg/injection, schedule: Q01DX001 (ip), vehicle: saline) 100 % of control; (endpoint: median survival time, dose: 40.0 mg/kg/injection, schedule: Q01DX009 (ip), vehicle: saline) 99 % of control (2×) and 100 % of control; (endpoint: median survival time, dose: 80.0 mg/kg/injection, schedule: Q01DX001 (ip), vehicle: saline) 100 % of control.

On to `O=NN(CCF)C(=O)NC12CC3CC(CC(C3)C1)C2`, for which the T/C is, setting by setting: (endpoint: median survival time, dose: 14.0 mg/kg/injection, schedule: Q01DX Z (sc), vehicle: carboxymethylcellulose (CMC)) 100 % of control; (endpoint: median survival time, dose: 23.0 mg/kg/injection, schedule: Q01DX Z (sc), vehicle: carboxymethylcellulose (CMC)) 100 % of control; (endpoint: median survival time, dose: 65.0 mg/kg/injection, schedule: Q01DX Z (sc), vehicle: carboxymethylcellulose (CMC)) 388 % of control; (endpoint: median survival time, dose: 108.0 mg/kg/injection, schedule: Q01DX Z (sc), vehicle: carboxymethylcellulose (CMC)) 200 % of control.
